2 molecules from ChEMBL document CHEMBL3351354, “From the covalent linkage of drugs to novel inhibitors of ribonucleotide reductase: synthesis and biological evaluation of valproic esters of 3'-C-methyladenosine” (Bioorg Med Chem Lett, 2014) can be followed below.

Calls of active or inactive are those of the source. Some results are limits rather than exact numbers.

Data set [1] can be described thus: Growth inhibition of human Caco2 cells after 48 hrs by MTT assay. Conditions: Homo sapiens, Caco-2, 48 h; read-out: IC50. Format: functional, cell-based, Caco-2. (Tetrazolium assays rely on reduction of a dye to a coloured formazan, in cell work by metabolically active cells.)
Data set [2] has as its system HL-60. The data set can be described thus: Induction of cell cycle arrest in human HL60 cells assessed as accumulation at S phase at 1 mM after 24 hrs by propidium iodide staining based flow cytometry (reference value: 54%). The class given is functional. On the technique in general: Flow cytometry measures light scatter and fluorescence of single cells or particles in a stream.

Data set [3] deals with T1, Ribonucleotide reductase (Homo sapiens) (UniProt P23921+Q7LG56). In words: Inhibition of ribonucleotide reductase in human HL60 cells assessed as intracellular dNTP pools level at 1.2 mM after 1 hr by HPLC method. The class given is cell-based. The settings on record: HL-60.
A further data set has as its system HT-29. The data set can be described thus: Growth inhibition of human HT-29 cells after 48 hrs by MTT assay. The class given is functional, cell-based. Conditions: Homo sapiens, HT-29, 48 h; read-out: IC50.
Data set [4] is described as follows: Half life in pH 7.4 isotonic sodium phosphate buffer at 37 degC by HPLC-DAD-ESI-MS method. Format: physicochemical.
The next data set concerns K562. In words: Growth inhibition of human K562 cells after 48 hrs by MTT assay. Format: functional, cell-based. Conditions: Homo sapiens, K562, 48 h; read-out: IC50.
The next data set concerns HuT78. In words: Growth inhibition of human HUT78 cells after 48 hrs by MTT assay. The class given is functional, cell-based. Conditions: Homo sapiens, HuT78, 48 h; read-out: IC50.
For the next data set, the system named is MCF7. The data set can be described thus: Growth inhibition of human MCF7 cells after 48 hrs by MTT assay. The class given is functional, cell-based. The settings on record: Homo sapiens, MCF7, 48 h; read-out: IC50.
The subject of data set [5] is HL-60. The data set can be described thus: Induction of apoptosis in human HL60 cells after 24 to 48 hrs by acridine orange and ethidium bromide staining based fluorescence microscopy. The class given is functional, cell-based. Conditions: hl-60.
For data set [6], the target named is T1, Ribonucleotide reductase (Homo sapiens). In words: Inhibition of human recombinant ribonucleotide reductase at 1.2 mM. Format: protein-complex assay.
Data set [7] can be described thus: Growth inhibition of human HL60 cells after 48 hrs by MTT assay. The class given is functional, cell-based, HL-60. Conditions: Homo sapiens, HL-60, 48 h; read-out: IC50.
Data set [8] has as its system HL-60. In words: Induction of cell cycle arrest in human HL60 cells assessed as accumulation at G2M phase at 1 mM after 24 hrs by propidium iodide staining based flow cytometry (reference value: 12%). The class given is functional.
The test system of another data set is HeLa. In words: Growth inhibition of human HeLa cells after 48 hrs by MTT assay. The settings on record: Homo sapiens, HeLa, 48 h; read-out: IC50. The class given is functional, cell-based.
Data set [9] concerns HL-60. The data set can be described thus: Induction of cell cycle arrest in human HL60 cells assessed as accumulation at G1 phase at 1 mM after 24 hrs by propidium iodide staining based flow cytometry (reference value: 32%). Format: functional.
A short description of data set [10]: Half life in RPMI-1640 medium containing 10% fetal calf serum assessed as compound disappearance by HPLC-DAD-ESI-MS method. The class given is ADME, Bos taurus. The settings on record: cattle.
The target in data set [11] is T1, Ribonucleotide reductase (Homo sapiens). In words: Inhibition of human recombinant ribonucleotide reductase at 1.2 mM in presence of 3 mM ATP. The class given is protein-complex assay.
Data set [12] shares this target. The data set can be described thus: Inhibition of human recombinant ribonucleotide reductase at 1.2 mM in presence of 1 mM ATP. Format: protein-complex assay.
For data set [13] the target is unchanged. In words: Inhibition of ribonucleotide reductase in human HL60 cells assessed as intracellular dNTP pools level at 0.3 mM after 1 hr by HPLC method. The class given is cell-based. The settings on record: HL-60.
Data set [14] has as its system HL-60. In words: Induction of cell cycle arrest in human HL60 cells assessed as accumulation at S phase at 100 uM after 24 hrs by propidium iodide staining based flow cytometry (reference value: 54%). Format: functional.
The target of the next data set is T2, Ribonucleotide reductase (Homo sapiens, UniProt P23921+Q7LG56).
T2 sequence (P23921 whole entry): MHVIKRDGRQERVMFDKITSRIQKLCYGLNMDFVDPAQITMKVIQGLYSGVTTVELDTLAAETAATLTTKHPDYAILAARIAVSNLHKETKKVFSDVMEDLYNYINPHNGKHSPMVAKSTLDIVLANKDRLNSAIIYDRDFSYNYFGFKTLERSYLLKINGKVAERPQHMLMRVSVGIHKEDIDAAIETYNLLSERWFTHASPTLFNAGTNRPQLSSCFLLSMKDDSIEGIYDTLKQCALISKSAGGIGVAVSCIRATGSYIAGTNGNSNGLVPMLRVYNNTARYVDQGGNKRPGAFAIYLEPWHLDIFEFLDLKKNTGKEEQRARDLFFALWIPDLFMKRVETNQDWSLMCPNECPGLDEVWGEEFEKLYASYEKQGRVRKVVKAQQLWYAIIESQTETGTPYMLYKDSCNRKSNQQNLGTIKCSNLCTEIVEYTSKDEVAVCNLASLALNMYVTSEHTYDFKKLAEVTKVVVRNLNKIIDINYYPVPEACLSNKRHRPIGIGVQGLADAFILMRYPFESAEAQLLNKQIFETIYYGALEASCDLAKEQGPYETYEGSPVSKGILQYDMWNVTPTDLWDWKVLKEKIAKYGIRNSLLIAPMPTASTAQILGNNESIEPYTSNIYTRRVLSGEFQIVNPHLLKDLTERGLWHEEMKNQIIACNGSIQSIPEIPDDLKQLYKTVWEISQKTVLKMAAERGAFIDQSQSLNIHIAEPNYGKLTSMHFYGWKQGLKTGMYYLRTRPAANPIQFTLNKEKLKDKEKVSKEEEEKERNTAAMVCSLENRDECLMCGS
T2 sequence (Q7LG56 whole entry): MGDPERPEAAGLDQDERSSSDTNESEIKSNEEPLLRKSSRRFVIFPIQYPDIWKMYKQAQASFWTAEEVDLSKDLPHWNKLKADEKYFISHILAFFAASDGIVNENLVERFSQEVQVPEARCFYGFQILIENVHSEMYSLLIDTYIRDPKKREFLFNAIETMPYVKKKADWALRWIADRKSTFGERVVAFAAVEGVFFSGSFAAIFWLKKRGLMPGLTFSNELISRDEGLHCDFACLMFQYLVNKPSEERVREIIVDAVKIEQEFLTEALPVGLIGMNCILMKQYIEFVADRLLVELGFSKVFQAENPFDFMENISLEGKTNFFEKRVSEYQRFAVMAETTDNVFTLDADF
The data set can be described thus: Competitive inhibition of human recombinant ribonucleotide reductase in presence of varying levels of ATP by Dixon plot. The class given is protein-complex assay.

Data set [15] has as its target T1, Ribonucleotide reductase (Homo sapiens). In words: Inhibition of human recombinant ribonucleotide reductase at 1.2 mM in presence of dGTP. Format: protein-complex assay.
For data set [16], the system named is HL-60. The data set can be described thus: Induction of cell cycle arrest in human HL60 cells assessed as accumulation at G2M phase at 100 uM after 24 hrs by propidium iodide staining based flow cytometry (reference value: 12%). The class given is functional.
In data set [17] the target is Histone deacetylase (Homo sapiens) (UniProt Q13547+O15379+Q9UBN7+Q92769+Q9UQL6+Q8WUI4+Q9BY41+Q96DB2+P56524+Q9UKV0+Q969S8). In words: Inhibition of HDAC in human HL60 cells assessed as increase in histone H3 acetylation at 10 and 100 uM after 24 hrs by Western blotting method. The class given is cell-based. The settings on record: HL-60. A general note: A western blot detects proteins with antibodies after separation by electrophoresis.

The subject of data set [18] is HL-60. In words: Induction of cell cycle arrest in human HL60 cells assessed as accumulation at G1 phase at 100 uM after 24 hrs by propidium iodide staining based flow cytometry (reference value: 32%). The class given is functional.

Take `CCCC(CCC)C(=O)O[C@H]1[C@H](n2cnc3c(N)ncnc32)O[C@H](CO)[C@@]1(C)O`: the IC50 was > 1000 µM in data set [1]; > 1000 µM in the data set on HT-29; 500 µM in the data set on K562; 912 µM in the data set with HuT78; > 1000 µM with MCF7; 650 µM in data set [7]. In the data set on HeLa, the IC50 is > 1000 µM. The values for the Activity in the data set with HL-60 [2], in the data set with HL-60 [8] and with HL-60 [9] were 40%, 9% and 51%, respectively. The inhibition entry in data set [3] and in data set [6] was “Active” each time. Also, the half-life in data set [4] and in data set [10] was > 72 h each time. The AC50 result in the data set with HL-60 [5] was “Not Active”.

Turning to `CCCC(CCC)C(=O)OC[C@H]1O[C@@H](n2cnc3c(N)ncnc32)[C@H](O)[C@]1(C)O`, the inhibition result in [11], in data set [15] and in data set [17] was “inactive” each time. Further, the inhibition entry in data set [12], in [13] and in data set [6] was “Active” each time. The IC50 in data set [1] was > 200 µM; with HT-29, > 200 µM; in the data set with K562, 200 µM; with HuT78 it was 142 µM; in the data set with MCF7 it was > 200 µM; in [7], 67.1 µM. The IC50 in the data set on HeLa is > 200 µM. Besides, the Activity is listed as 44% with HL-60 [14], 14% in the data set on HL-60 [16] and 42% in the data set with HL-60 [18]. Also, the Ki on Ribonucleotide reductase was found to be 400 µM. The half-life in [4] and in data set [10] was > 72 h throughout. Further, in the data set with HL-60 [5], the AC50 result is “Not Active”.

The term IC50 denotes the midpoint of a concentration-inhibition curve. One may read the half-life as the time needed for the level to fall by half in the phase considered. One may read the Ki as the equilibrium dissociation constant of an inhibitor or competing ligand from its target.
